Where two headings read alike, the source gives them in different places. Positions of bridges follow the written chain, without caps; N, C: chain ends. Residues, ends and D or L forms follow the SMILES beside them. *: point of attachment. Biotin = O=C1N[C@H]2[C@H](CS[C@H]2CCCCC(=O)*)N1
Key:
[1] = tested on: formalin pain model in male CD-1 mice; details: in vivo
hNav1.7 [2] = target: T1, hNav1.7 (Homo sapiens, UniProt Q15858); assay: cell-based; assay type: cell-based; details: IonWorks Quattro, Use; read-out: IWQ Use Nav1.7
hNav1.5 [3] = target: T2, hNav1.5 (Homo sapiens, UniProt Q14524); assay: cell-based; details: IWQ Use Nav1.5 (μM)
hNav1.3 [4] = target: T3, hNav1.3 (Homo sapiens, UniProt Q9NY46); assay: cell-based; details: IonWorks Quattro, read-out: IWQ Use Nav1.3
[5] = human plasma, 37° C.
[6] = mouse plasma, 37° C.
[7] = tested on: locomotor activity in male CD-1 mice; details: 5 mg/kg s.c.
hNav1.7 [8] = target: T1, hNav1.7; assay: cell-based
hNav1.3 [9] = target: T3, hNav1.3; assay: cell-based; assay type: cell-based
hNav1.4 = hNav1.4 (Homo sapiens, UniProt P35499); assay: cell-based
hNav1.5 [10] = target: T2, hNav1.5; assay: cell-based
[11] = incubation time 0 hr (normalisation point)

T3 sequence (Q9NY46 whole entry, looked up): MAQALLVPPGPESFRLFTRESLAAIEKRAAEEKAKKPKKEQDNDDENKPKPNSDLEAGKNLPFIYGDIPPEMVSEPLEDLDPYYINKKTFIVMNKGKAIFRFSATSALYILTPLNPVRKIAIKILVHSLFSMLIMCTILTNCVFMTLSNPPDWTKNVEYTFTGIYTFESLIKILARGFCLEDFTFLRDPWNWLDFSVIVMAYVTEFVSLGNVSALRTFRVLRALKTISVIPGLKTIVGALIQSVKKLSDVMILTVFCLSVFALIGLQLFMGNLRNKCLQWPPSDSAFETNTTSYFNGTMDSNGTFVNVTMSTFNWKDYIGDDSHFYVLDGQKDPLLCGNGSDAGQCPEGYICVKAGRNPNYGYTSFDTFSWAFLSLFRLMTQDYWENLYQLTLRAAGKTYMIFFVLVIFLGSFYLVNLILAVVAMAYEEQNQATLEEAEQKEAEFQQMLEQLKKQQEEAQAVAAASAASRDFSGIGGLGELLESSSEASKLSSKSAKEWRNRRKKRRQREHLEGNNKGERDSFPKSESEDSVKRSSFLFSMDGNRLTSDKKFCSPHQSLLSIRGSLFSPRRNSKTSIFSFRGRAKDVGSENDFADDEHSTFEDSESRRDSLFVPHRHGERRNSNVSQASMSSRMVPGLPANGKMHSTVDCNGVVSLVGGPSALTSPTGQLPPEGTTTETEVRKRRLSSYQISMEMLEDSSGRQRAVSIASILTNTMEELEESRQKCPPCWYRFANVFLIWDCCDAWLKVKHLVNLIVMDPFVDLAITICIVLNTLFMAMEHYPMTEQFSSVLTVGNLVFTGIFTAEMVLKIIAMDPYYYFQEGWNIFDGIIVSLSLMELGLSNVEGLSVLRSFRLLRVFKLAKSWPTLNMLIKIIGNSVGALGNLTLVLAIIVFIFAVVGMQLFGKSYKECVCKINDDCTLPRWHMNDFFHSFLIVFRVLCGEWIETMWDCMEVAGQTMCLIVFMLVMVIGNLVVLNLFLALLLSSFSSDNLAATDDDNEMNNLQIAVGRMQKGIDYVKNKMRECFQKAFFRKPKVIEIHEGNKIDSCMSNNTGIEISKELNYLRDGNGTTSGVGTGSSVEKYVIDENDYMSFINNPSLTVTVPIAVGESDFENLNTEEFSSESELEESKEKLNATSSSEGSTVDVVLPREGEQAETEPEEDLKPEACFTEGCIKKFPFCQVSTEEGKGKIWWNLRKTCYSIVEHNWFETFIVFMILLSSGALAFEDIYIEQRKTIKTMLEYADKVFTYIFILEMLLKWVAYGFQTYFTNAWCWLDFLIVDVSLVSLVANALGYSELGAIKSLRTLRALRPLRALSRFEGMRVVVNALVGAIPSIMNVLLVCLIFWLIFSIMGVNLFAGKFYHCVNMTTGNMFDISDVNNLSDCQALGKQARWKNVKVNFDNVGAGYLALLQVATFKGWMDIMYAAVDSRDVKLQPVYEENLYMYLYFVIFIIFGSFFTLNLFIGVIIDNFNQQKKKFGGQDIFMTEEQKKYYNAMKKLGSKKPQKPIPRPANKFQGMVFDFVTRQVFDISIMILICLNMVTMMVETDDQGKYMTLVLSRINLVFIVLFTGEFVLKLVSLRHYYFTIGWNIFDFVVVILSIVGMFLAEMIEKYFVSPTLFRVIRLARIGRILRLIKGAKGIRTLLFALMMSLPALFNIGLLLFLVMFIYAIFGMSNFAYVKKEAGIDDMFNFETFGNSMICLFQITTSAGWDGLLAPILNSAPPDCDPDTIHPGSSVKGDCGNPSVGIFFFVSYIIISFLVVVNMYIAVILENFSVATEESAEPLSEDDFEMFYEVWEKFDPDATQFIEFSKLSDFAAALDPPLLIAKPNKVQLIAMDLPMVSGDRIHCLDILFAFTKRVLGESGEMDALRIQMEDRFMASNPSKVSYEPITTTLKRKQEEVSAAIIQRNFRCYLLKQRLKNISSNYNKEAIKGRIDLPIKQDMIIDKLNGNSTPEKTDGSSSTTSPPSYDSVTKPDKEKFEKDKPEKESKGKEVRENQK
T2 sequence (Q14524 whole entry, looked up): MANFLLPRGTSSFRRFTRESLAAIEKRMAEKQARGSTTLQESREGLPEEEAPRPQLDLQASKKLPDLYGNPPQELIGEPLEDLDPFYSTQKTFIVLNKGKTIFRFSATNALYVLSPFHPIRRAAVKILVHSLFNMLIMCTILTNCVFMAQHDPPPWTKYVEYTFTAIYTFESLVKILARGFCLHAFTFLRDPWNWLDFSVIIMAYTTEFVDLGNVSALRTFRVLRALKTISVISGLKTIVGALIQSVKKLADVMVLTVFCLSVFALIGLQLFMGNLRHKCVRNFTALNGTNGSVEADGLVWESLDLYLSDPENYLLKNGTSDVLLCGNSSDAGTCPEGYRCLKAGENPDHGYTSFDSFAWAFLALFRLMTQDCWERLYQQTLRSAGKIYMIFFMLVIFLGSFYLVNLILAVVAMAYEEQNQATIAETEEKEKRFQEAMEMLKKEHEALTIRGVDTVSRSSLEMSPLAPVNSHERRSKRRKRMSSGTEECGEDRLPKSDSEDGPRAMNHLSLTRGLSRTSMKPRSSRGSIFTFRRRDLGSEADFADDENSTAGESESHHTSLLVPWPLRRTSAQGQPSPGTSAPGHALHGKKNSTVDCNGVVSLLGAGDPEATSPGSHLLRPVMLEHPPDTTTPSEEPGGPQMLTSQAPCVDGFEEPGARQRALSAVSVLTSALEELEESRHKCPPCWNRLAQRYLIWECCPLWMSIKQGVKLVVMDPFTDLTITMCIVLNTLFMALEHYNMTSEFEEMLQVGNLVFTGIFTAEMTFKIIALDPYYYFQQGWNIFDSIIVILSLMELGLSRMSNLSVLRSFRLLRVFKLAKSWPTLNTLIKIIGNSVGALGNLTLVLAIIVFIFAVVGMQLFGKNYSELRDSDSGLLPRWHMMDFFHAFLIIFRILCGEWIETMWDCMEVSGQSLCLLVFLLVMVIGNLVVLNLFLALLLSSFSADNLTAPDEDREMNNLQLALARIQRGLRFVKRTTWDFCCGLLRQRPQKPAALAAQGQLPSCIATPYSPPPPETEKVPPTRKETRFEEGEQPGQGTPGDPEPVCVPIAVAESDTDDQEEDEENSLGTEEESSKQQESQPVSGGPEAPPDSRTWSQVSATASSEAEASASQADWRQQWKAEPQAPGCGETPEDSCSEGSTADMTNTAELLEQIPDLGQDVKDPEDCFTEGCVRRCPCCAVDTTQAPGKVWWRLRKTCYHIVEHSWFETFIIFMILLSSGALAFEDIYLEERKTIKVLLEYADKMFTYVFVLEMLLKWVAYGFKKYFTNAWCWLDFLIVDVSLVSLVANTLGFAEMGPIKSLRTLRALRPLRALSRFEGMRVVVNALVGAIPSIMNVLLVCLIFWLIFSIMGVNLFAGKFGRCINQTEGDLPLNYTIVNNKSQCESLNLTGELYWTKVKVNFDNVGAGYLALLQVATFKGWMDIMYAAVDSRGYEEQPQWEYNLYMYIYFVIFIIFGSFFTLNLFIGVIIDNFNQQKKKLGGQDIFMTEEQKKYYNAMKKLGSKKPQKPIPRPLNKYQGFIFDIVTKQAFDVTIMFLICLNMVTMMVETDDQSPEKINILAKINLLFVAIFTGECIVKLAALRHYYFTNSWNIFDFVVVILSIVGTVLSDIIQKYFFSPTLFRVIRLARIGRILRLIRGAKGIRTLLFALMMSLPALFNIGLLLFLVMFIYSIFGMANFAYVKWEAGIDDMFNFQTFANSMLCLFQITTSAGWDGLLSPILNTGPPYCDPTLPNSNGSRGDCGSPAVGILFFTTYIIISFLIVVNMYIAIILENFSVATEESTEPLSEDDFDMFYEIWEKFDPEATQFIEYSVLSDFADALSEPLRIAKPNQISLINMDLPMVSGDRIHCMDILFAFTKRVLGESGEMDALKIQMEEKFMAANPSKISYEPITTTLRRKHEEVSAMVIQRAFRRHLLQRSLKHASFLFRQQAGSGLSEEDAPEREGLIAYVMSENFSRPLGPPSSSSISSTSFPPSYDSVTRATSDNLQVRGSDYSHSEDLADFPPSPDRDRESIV

CN1CC[C@]23c4c5ccc(O)c4O[C@H]2[C@@H](O)C=C[C@H]3[C@H]1C5 [morphine, reference compound]
time spent lifting and/or licking the affected paw, first phase (0-5 minutes post formalin injection) ([1]; mouse): Neither the peptide nor the morphine positive control significantly reduced

CSCC[C@@H]1NC(=O)[C@H](Cc2ccccc2)NC(=O)CNC(=O)[C@H](CC(C)C)NC(=O)[C@@H](NC(=O)[C@@H](N)CC(=O)O)CSSC[C@@H]2NC(=O)[C@@H]3CSSC[C@@H](C(=O)N[C@@H](CCCCN)C(=O)N[C@@H](Cc4ccc(O)cc4)C(=O)N[C@H](C(=O)N[C@@H](Cc4ccccc4)C(N)=O)C(C)C)NC(=O)[C@H](Cc4c[nH]c5ccccc45)NC(=O)[C@H](CCCCN)NC(=O)[C@H](Cc4c[nH]cn4)NC(=O)[C@H]([C@@H](C)O)NC(=O)[C@H](CCCNC(=N)N)NC(=O)[C@H](CO)NC(=O)[C@H](CSSC[C@H](NC(=O)[C@H](CCCCN)NC(=O)[C@H](CCCNC(=N)N)NC1=O)C(=O)N[C@@H](Cc1cccc4ccccc14)C(=O)N1CCC[C@H]1C(=O)N[C@@H](CC(=O)O)C(=O)N[C@@H](CC(N)=O)C(=O)N[C@@H](CC(=O)O)C(=O)N[C@@H](CCCCN)C(=O)N3)NC(=O)[C@H](C(C)C)NC(=O)[C@H](CC(C)C)NC(=O)[C@H](CC(N)=O)NC(=O)[C@@H]1CCCN1C(=O)[C@H](CCCNC(=N)N)NC2=O [SEQ ID NO: 78, [1-Nal10]GpTx-1(1-34)]
IC50 (hNav1.7 [2]): 150 nM | IC50 (hNav1.5 [3]): 10 µM | IC50 (hNav1.3 [4]; Use): 210 nM | % peptide remaining [5, 11]: 100% | % peptide remaining ([5]; incubation time 2 hr): 99% | % peptide remaining ([5]; incubation time 4 hr): 93% | % peptide remaining ([5]; incubation time 8 hr): 97% | % peptide remaining ([5]; incubation time 24 hr): 82% | % peptide remaining [6, 11]: 100% | % peptide remaining ([6]; incubation time 2 hr): 98% | % peptide remaining ([6]; incubation time 4 hr): 92% | % peptide remaining ([6]; incubation time 8 hr): 92% | % peptide remaining ([6]; incubation time 24 hr): 88%

CC[C@H](C)[C@@H]1NC(=O)[C@@H]2CSSC[C@@H]3NC(=O)[C@H](C(C)C)NC(=O)[C@H](CC(C)C)NC(=O)[C@H](CC(N)=O)NC(=O)[C@@H]4CCCN4C(=O)[C@H](CCCNC(=N)N)NC(=O)[C@H](CSSC[C@H](NC(=O)[C@@H](N)CC(=O)O)C(=O)N[C@@H](CC(C)C)C(=O)NCC(=O)N[C@@H](Cc4ccccc4)C(=O)N[C@@H](CCSC)C(=O)N[C@@H](CCCNC(=N)N)C(=O)N[C@@H](CCCCN)C(=O)N2)NC(=O)[C@H](CSSC[C@@H](C(=O)N[C@@H](CCCCN)C(=O)N[C@@H](Cc2ccc(O)cc2)C(=O)N[C@H](C(=O)N[C@@H](Cc2ccccc2)C(N)=O)C(C)C)NC(=O)[C@H](CCC(=O)O)NC(=O)[C@H](CCCCN)NC(=O)[C@H](Cc2c[nH]cn2)NC(=O)[C@H]([C@@H](C)O)NC(=O)[C@H](CCCNC(=N)N)NC(=O)[C@H](CO)NC3=O)NC(=O)[C@H](CCCCN)NC(=O)[C@H](CC(=O)O)NC(=O)[C@H](CC(N)=O)NC(=O)[C@H](CC(=O)O)NC(=O)[C@@H]2CCCN2C1=O [[Glu29]GpTx-1(1-34)] (H-DCLGFMRKCIPDNDKCCRPNLVCSRTHKECKYVF-NH2; disulfide 2-17, 9-23, 16-30)
paw edema caused by formalin injection ([1]; mouse): Neither the peptide nor the morphine control significantly reduced | time spent lifting/licking, second phase ([1]; mouse): did not demonstrate a significant reduction

CC[C@H](C)[C@@H]1NC(=O)[C@@H]2CSSC[C@@H]3NC(=O)[C@H](C(C)C)NC(=O)[C@H](CC(C)C)NC(=O)[C@H](CC(N)=O)NC(=O)[C@@H]4CCCN4C(=O)[C@H](CCCNC(=N)N)NC(=O)[C@H](CSSC[C@H](NC(=O)[C@@H](N)CC(=O)O)C(=O)N[C@@H](CC(C)C)C(=O)NCC(=O)N[C@@H](Cc4ccccc4)C(=O)N[C@@H](CCSC)C(=O)N[C@@H](CCCNC(=N)N)C(=O)N[C@@H](CCCCN)C(=O)N2)NC(=O)[C@H](CSSC[C@@H](C(=O)N[C@@H](CCCCN)C(=O)N[C@@H](Cc2ccc(O)cc2)C(=O)N[C@H](C(=O)N[C@@H](Cc2ccccc2)C(N)=O)C(C)C)NC(=O)[C@H](CCC(=O)O)NC(=O)[C@H](CCCCN)NC(=O)[C@H](Cc2cnc[nH]2)NC(=O)[C@H]([C@@H](C)O)NC(=O)[C@H](CCCNC(=N)N)NC(=O)[C@H](CO)NC3=O)NC(=O)[C@H](CCCCN)NC(=O)[C@H](CC(=O)O)NC(=O)[C@H](CC(N)=O)NC(=O)[C@H](CC(=O)O)NC(=O)[C@@H]2CCCN2C1=O [SEQ ID NO: 30, [Glu29]GpTx-1(1-34)] (H-DCLGFMRKCIPDNDKCCRPNLVCSRTHKECKYVF-NH2; disulfide 2-17, 9-23, 16-30)
IC50 (hNav1.3 [4]; Table 24, use, […]): 16100 nM | terminal exposure (peptide plasma concentration at 45 min post formalin injection) ([1]; male, CD-1, mouse, sc, 5 mg/kg, […]): 0.502 ± 0.271 µM | locomotor activity in the open field analysis [7]: no significant effect | terminal exposure (peptide plasma concentration at 2 h post peptide injection) ([7]; later studies): 0.771 ± 0.272 µM

[Phe6,Atz(500 Da EtO-PEG*-{[Phe6,Atz13*]GpTx-1(1-34)})13]GpTx-1(1-34) [Homodimeric Conjugate 2]
IC50 (hNav1.7 [8]; read-out: Nav1.7 Use IC50): 19 nM | Nav1.3/Nav1.7 Use (hNav1.3 [9]): 2.4 | IC50 (hNav1.3 [9]; read-out: Nav1.3 Use IC50): 46 nM | Nav1.4/Nav1.3 Use (hNav1.4): 7 | Nav1.4/Nav1.7 Use (hNav1.4): 16 | IC50 (hNav1.4; read-out: Nav1.4 Use IC50): 299 nM | Nav1.5/Nav1.3 Use (hNav1.5 [10]): 19 | Nav1.5/Nav1.7 Use (hNav1.5 [10]): 45 | IC50 (hNav1.5 [10]; read-out: Nav1.5 Use IC50): 863 nM

CC[C@H](C)[C@@H]1NC(=O)[C@@H]2CSSC[C@@H]3NC(=O)[C@H](C(C)C)NC(=O)[C@H](CC(C)C)NC(=O)[C@H](CC(N)=O)NC(=O)[C@@H]4CCCN4C(=O)[C@H](CCCNC(=N)N)NC(=O)[C@H](CSSC[C@H](NC(=O)[C@@H](N)CC(=O)O)C(=O)N[C@@H](CC(C)C)C(=O)NCC(=O)N[C@@H](Cc4ccccc4)C(=O)N[C@@H](CCSC)C(=O)N[C@@H](CCCNC(=N)N)C(=O)N[C@@H](CCCCN)C(=O)N2)NC(=O)[C@H](CSSC[C@@H](C(=O)N[C@@H](CCCCN)C(=O)N[C@@H](Cc2ccc(O)cc2)C(=O)N[C@H](C(=O)N[C@@H](Cc2ccccc2)C(N)=O)C(C)C)NC(=O)[C@H](CCC(=O)O)NC(=O)[C@H](CCCCN)NC(=O)[C@H](Cc2c[nH]cn2)NC(=O)[C@H]([C@@H](C)O)NC(=O)[C@H](CCCNC(=N)N)NC(=O)[C@H](CO)NC3=O)NC(=O)[C@H](CCCCN)NC(=O)[C@H](CC(=O)O)NC(=O)[C@H](CC(N)=O)NC(=O)[C@H](CC(=O)O)NC(=O)[C@@H]2CCCN2C1=O [SEQ ID NO: 30, [Glu29]GpTx-1(1-34)] (H-DCLGFMRKCIPDNDKCCRPNLVCSRTHKECKYVF-NH2; disulfide 2-17, 9-23, 16-30)
time spent lifting/licking, second phase ([1]; mouse): no significant effect

CC(C)C[C@@H]1NC(=O)[C@@H](NC(=O)[C@@H](N)CC(=O)O)CSSC[C@@H]2NC(=O)[C@@H]3CSSC[C@@H](C(=O)N[C@@H](CCCCN)C(=O)N[C@@H](Cc4ccc(O)cc4)C(=O)N[C@H](C(=O)N[C@@H](Cc4ccccc4)C(N)=O)C(C)C)NC(=O)[C@H](Cc4c[nH]c5ccccc45)NC(=O)[C@H](CCCNC(=N)N)NC(=O)[C@H](Cc4c[nH]cn4)NC(=O)[C@H](CC(C)C)NC(=O)[C@H](CCCNC(=N)N)NC(=O)[C@H](CO)NC(=O)[C@H](CSSC[C@H](NC(=O)[C@H](CCCCN)NC(=O)[C@H](CCCNC(=N)N)NC(=O)[C@H](Cc4ccccc4)NC(=O)[C@H](C)NC(=O)CNC1=O)C(=O)N[C@@H](CCC(=O)O)C(=O)N1CCC[C@H]1C(=O)N[C@@H](CC(=O)O)C(=O)N[C@@H](CCCCNC(=O)CCCC[C@@H]1SC[C@@H]4NC(=O)N[C@@H]41)C(=O)N[C@@H](CC(=O)O)C(=O)N[C@@H](CCCCN)C(=O)N3)NC(=O)[C@H](C(C)C)NC(=O)[C@H](CC(C)C)NC(=O)[C@H](CC(N)=O)NC(=O)[C@@H]1CCCN1C(=O)[C@H](CCCNC(=N)N)NC2=O (H-DCLGAFRKCEPDK(Biotin)DKCCRPNLVCSRLHRWCKYVF-NH2; disulfide 2-17, 9-23, 16-30)
Nav1.4/Nav1.7 Use (hNav1.7 [8]): 475 | Nav1.5/Nav1.7 Use (hNav1.7 [8]): >667 | IC50 (hNav1.7 [8]; Nav1.7 Use IC50): 15 nM | IC50 (hNav1.4; Nav1.4 Use IC50): 7130 nM | IC50 (hNav1.5 [10]): > 10000 nM

Source: patent US9340590B2 (priority 2011, dated 2016)
